Tested on: 633275-114-R-J1-PDC complex spheroids, viability
Experiment: Anticancer human tumor 633275-114-R-J1-PDC patient-derived endometrial adenocarcinoma cell line growth inhibition [GQUAD]
Details: for IC50: curve of first compound; for viability, T/C: stronger effect = lower value
Excerpt: DNA G-quadruplex Stabilizer Agents in Combinations in Complex Spheroids
A high-throughput screen of multi-cell type tumor spheroids was designed to identify active combinations of DNA G-quadruplex stabilizer agents and targeted small molecules. Complex spheroids include a stromal component modeled by human endothelial cells (HUVEC) and fibroblasts modeled by human mesenchymal stem cells (MSCs). The concentration ranges selected for each drug and investigational agent were based upon clinically achievable concentrations if the clinical Cmax of the agent was known.
Compounds. The drugs and investigational agents: pidnarulex (CX-5461; NSC782164), APTO-253 (NSC789042), BRACO-19 (NSC847499), peposertib (NSC802822), ceralasertib (NSC780249), elimusertib (NSC800525), camonsertib (NSC841442), AZD-1390 (NSC803789), olaparib (NSC753686), talazoparib (NSC767125), ART-558 (NSC835418), sotorasib (NSC818433), MRTX-1133 (NSC836407), SN-38 (NSC673596), topotecan (NSC609699), etoposide (NSC141540), doxorubicin (NSC123127), gemcitabine (NSC613327), 5-fluorouracil (NSC19893), paclitaxel (NSC125973), vemurafenib (NSC761431), panobinostat (NSC761190), R-306465 (JNJ-16241199; NSC773264), adavosertib (NSC754352), TP-3654 (NSC805149), carboplatin (NSC241240), KSQ-4279 (NSC840948), and staurosporine (NSC755774) were obtained from the National Cancer Institute (NCI) Developmental Therapeutics Program Chemical Repository (34). The FDA-approved anticancer drug set is available from the NCI Developmental Therapeutics Program. […] The stock solutions were prepared in dimethyl sulfoxide (DMSO, Sigma-Aldrich, St. Louis, MO, cat. D2650) at 800-fold the tested concentration and stored at -70 degrees C prior to their use. All drugs and investigational agents were tested over a range starting from a high concentration at or near the clinical Cmax and decreasing in half-log increments. If the clinical Cmax for an agent had not been determined, the highest concentration tested was 10 microM.
2.3 Cell Culture. All cells were maintained in an incubator at 37 degrees C and 5% CO2 with 95% humidity. The PDC lines were cultured according to standard operating procedures established by the NCI PDMR. All PDCs were thawed and cultured in Matrigel-coated flasks prepared with a working solution of 1X Ham's F-12 nutrient mix, without supplementation (Invitrogen, cat. 11765054), 100 U/mL penicillin-streptomycin (Invitrogen, cat. 15140122), and 2.5% Matrigel (Corning Inc., cat. 354248) for the first three passages. The 857933-349-R-J2-PDC line was cultured in 6C/Colon 1B media, which includes advanced DMEM/F-12 (Thermo Fisher Scientific, cat. 12634028), 10 mM HEPES (Thermo Fisher Scientific, cat. 15630080), 1X GlutaMAX supplement (Thermo Fisher Scientific, cat. 35050061), 0.1 mg/mL primocin (InvivoGen, cat. ant-pm-2), 10% defined fetal bovine serum, heat inactivated (HyClone Laboratories Inc., cat. SH30070.03HI), 50% L-WRN conditioned media (ATCC, cat. CRL-3276), 1.25 mM N-Acetyl-L-cysteine (Sigma-Aldrich, cat. A9165), 10 mM nicotinamide (Sigma-Aldrich, cat. N0636), 1X B-27 supplement (Thermo Fisher Scientific, cat. 17504044), 1X N-2 supplement (Thermo Fisher Scientific, cat. 17502048), 10 microM Y-27632 dihydrochloride (Tocris Bioscience, cat. 1254), and 50 ng/mL human EGF recombinant protein (Thermo Fisher Scientific, cat. PHG0311). The 485176-168-R4-J1-PDC line was cultured in Panc media, which includes all 6C/Colon 1B media components plus 100 ng/mL human FGF-10 (Thermo Fisher Scientific, cat. 100-26), 500 nM SB-431542 (Selleckchem, cat. S1067), and gastrin (Tocris, cat. 3006).
[…]
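Further: spheroids exposed to the agents for seven days.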
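Wherever viability, T/C is given: percent of DMSO vehicle control viability which is 100%.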

SMILES: Cn1ncnc1[C@H]1c2n[nH]c(=O)c3cc(F)cc(c23)N[C@@H]1c1ccc(F)cc1 + CN(C)c1ccc(Nc2c3ccc(NC(=O)CCN4CCCC4)cc3nc3cc(NC(=O)CCN4CCCC4)ccc23)cc1
- IC50 (second compound 0.0316 µM): > 316 nM
- IC50 (second compound 0.1 µM): > 316 nM
- IC50 (second compound 0.316 µM): > 316 nM
- IC50 (second compound 1 µM): > 316 nM
- IC50 (second compound 3.16 µM): > 316 nM
- IC50 (second compound 10 µM): < 0.999 nM
- viability, T/C (second compound 0.0316 µM, first compound 0.000999 µM): 103%
- viability, T/C (second compound 0.0316 µM, first compound 0.00316 µM): 95.6%
- viability, T/C (second compound 0.0316 µM, first compound 0.00999 µM): 82%
- viability, T/C (second compound 0.0316 µM, first compound 0.0316 µM): 76.8%
- viability, T/C (second compound 0.0316 µM, first compound 0.0999 µM): 65.4%
- viability, T/C (second compound 0.0316 µM, first compound 0.316 µM): 55.5%
- viability, T/C (second compound 0.1 µM, first compound 0.000999 µM): 97.6%
- viability, T/C (second compound 0.1 µM, first compound 0.00316 µM): 101%
- viability, T/C (second compound 0.1 µM, first compound 0.00999 µM): 98%
- viability, T/C (second compound 0.1 µM, first compound 0.0316 µM): 74.8%
- viability, T/C (second compound 0.1 µM, first compound 0.0999 µM): 70.6%
- viability, T/C (second compound 0.1 µM, first compound 0.316 µM): 63.1%
- viability, T/C (second compound 0.316 µM, first compound 0.000999 µM): 95.2%
- viability, T/C (second compound 0.316 µM, first compound 0.00316 µM): 102%
- viability, T/C (second compound 0.316 µM, first compound 0.00999 µM): 86.5%
- viability, T/C (second compound 0.316 µM, first compound 0.0316 µM): 86.4%
- viability, T/C (second compound 0.316 µM, first compound 0.0999 µM): 71.2%
- viability, T/C (second compound 0.316 µM, first compound 0.316 µM): 52.9%
- viability, T/C (second compound 1 µM, first compound 0.000999 µM): 102%
- viability, T/C (second compound 1 µM, first compound 0.00316 µM): 96.2%
- viability, T/C (second compound 1 µM, first compound 0.00999 µM): 91.9%
- viability, T/C (second compound 1 µM, first compound 0.0316 µM): 77.1%
- viability, T/C (second compound 1 µM, first compound 0.0999 µM): 63.6%
- viability, T/C (second compound 1 µM, first compound 0.316 µM): 54.4%
- viability, T/C (second compound 3.16 µM, first compound 0.000999 µM): 84.9%
- viability, T/C (second compound 3.16 µM, first compound 0.00316 µM): 91.2%
- viability, T/C (second compound 3.16 µM, first compound 0.00999 µM): 79.7%
- viability, T/C (second compound 3.16 µM, first compound 0.0316 µM): 70%
- viability, T/C (second compound 3.16 µM, first compound 0.0999 µM): 59.3%
- viability, T/C (second compound 3.16 µM, first compound 0.316 µM): 49.6%
- viability, T/C (second compound 10 µM, first compound 0.000999 µM): 31.5%
- viability, T/C (second compound 10 µM, first compound 0.00316 µM): 35.2%
- viability, T/C (second compound 10 µM, first compound 0.00999 µM): 35.4%
- viability, T/C (second compound 10 µM, first compound 0.0316 µM): 29.7%
- viability, T/C (second compound 10 µM, first compound 0.0999 µM): 26.3%
- viability, T/C (second compound 10 µM, first compound 0.316 µM): 22%

Source: PubChem BioAssay AID2060505 (Molecular Pharmacology Branch, DTP, NCI, 2025)
